Values quoted from earlier work in patent publication US20050065732A1, “Matrix methods for quantitatively analyzing and assessing the properties of botanical samples” (priority 2001, published 2005).

Columns and labels:
[1] = system: human umbilical vein endothelial cells (HUVECs)

Row | Structure (SMILES) | PAI-1 antigen synthesis (HUVECs) | TPA mRNA (HUVECs) | TPA synthesis (HUVECs) | expression of PAI-1-specific mRNA (HUVECs) | urokinase-type plasminogen activator antigen synthesis (HUVECs) | plasminogen activator inhibitor type I (PAI-1) specific mRNA expression [1] | tissue-type plasminogen activator (t-PA) specific mRNA [1]
1 | CC(C)=CCC[C@](C)(O[C@@H]1O[C@H](CO)[C@@H](O)[C@H](O)[C@H]1O)[C@H]1CC[C@]2(C)[C@@H]1[C@H](O)C[C@@H]1[C@@]3(C)CC[C@H](O)C(C)(C)[C@@H]3[C@@H](O[C@@H]3O[C@H](CO)[C@@H](O)[C@H](O)[C@H]3O[C@@H]3OC[C@@H](O)[C@H](O)[C@H]3O)C[C@]12C [NR1, notoginsenoside R1] | did not change | increased as much as twofold | dose- and time-dependent increase | not significantly affected | did not change |  | 
2 | CC(C)(O)[C@@H]1CC[C@](C)([C@H]2[C@@H](O)C[C@@]3(C)[C@@H]4C[C@H](O[C@@H]5O[C@H](CO)[C@@H](O)[C@H](O)[C@H]5O)[C@H]5C(C)(C)[C@@H](O[C@@H]6OC[C@@H](O)[C@H](O)[C@H]6O)CC[C@@]56C[C@@]46CC[C@]23C)O1 [astragaloside IV] |  |  |  |  |  | decreased | increased
